Our source for the EC50 values is patent US9499550B2 (BRISTOL-MYERS SQUIBB COMPANY, priority 2012, dated 2016).

What is called EC50 is the concentration that produces a half-maximal response.

In assay [1] the test system is HCV genotype 1b (Con1) replicon in HUH-7 cells. The assay can be described thus: HCV replicon luciferase reporter assay, genotype 1b. It counts as cell-based. The following applies: Hepatitis C virus, Huh-7, 72 h, HCV genotype 1b replicon luciferase, 3 days incubation, read-out: LE_1b (EC50, range). The procedure, abridged: (§1)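 Replicon inhibition for both genotypes was measured as Renilla luciferase signal (EnduRen, 7.5 μM final, 2 h) after 3-day, 37° C exposure of replicon-bearing HUH-7 cells in 4% FCS DMEM, 0.5% DMSO. The 1b construct carries S1179I; the 1a H77 construct carries P1496L and S2204I. Twenty-point, 3-fold dilutions were fitted four-parametrically for EC50, and CC50 was taken from multiplexed Cell Titer-Blue.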
In general terms: A replicon is a self-replicating genome or part of one, used to study replication in cells.

Assay [2] has as its system HCV genotype 1a (H77 strain) replicon in HUH-7 cells. The assay can be described thus: HCV replicon luciferase reporter assay, genotype 1a. It counts as cell-based. As to conditions: Hepatitis C virus, Huh-7, 72 h, HCV genotype 1a replicon luciferase, 3 days incubation, read-out: LE_1a (EC50, range). The method, boiled down:
as §1

Consider `COc1ccc2c(O[C@@H]3C[C@H]4C(=O)N[C@]5(C(=O)NS(=O)(=O)C6CC6)C[C@H]5/C=C\CC[C@@H](C)C[C@@H](C)[C@H](NC(=O)OC(C)(C)C(F)(F)F)C(=O)N4C3)nc(-c3ccc(OC(C)C)cn3)cc2c1` [Compound 5203, 1,1,1-trifluoro-2-methylpropan-2-yl((2R,6S,7R,9R,13aS,14aR,16aS,Z)-14a-((cyclopropylsulfonyl)carbamoyl)-2-((3-(5-isopropoxypyridin-2-yl)-6-methoxyisoquinolin-1-yl)oxy)-7,9-dimethyl-5,16-dioxo-1,2,3,5,6,7,8,9,10,11,13a,14,14a,15,16,16a-hexadecahydrocyclopropa[e]pyrrolo[1,2-a][1,4]diazacyclopentadecin-6-yl)carbamate], for which the EC50 in assay [1] and in assay [2] was under 5.46 nM in each case.

As for `[2H]C([2H])([2H])C(OC(=O)N[C@@H]1C(=O)N2C[C@H](Oc3nc(-c4ccc(OC(C)C)cn4)cc4cc(OC)ccc34)C[C@H]2C(=O)N[C@]2(C(=O)NS(=O)(=O)C3CC3)C[C@H]2/C=C\CC[C@H](C)C[C@H]1C)(C([2H])([2H])[2H])C(F)(F)F` [Compound 5204, 1,1,1,3,3,3-hexadeutero-2-(trifluoromethyl)propan-2-yl((2R,6S,7R,9S,13aS,14aR,16aS,Z)-14a-((cyclopropylsulfonyl)carbamoyl)-2-((3-(5-isopropoxypyridin-2-yl)-6-methoxyisoquinolin-1-yl)oxy)-7,9-dimethyl-5,16-dioxo-1,2,3,5,6,7,8,9,10,11,13a,14,14a,15,16,16a-hexadecahydrocyclopropa[e]pyrrolo[1,2-a][1,4]diazacyclopentadecin-6-yl)carbamate], the EC50 in assay [1] and in assay [2] was under 5.46 nM throughout.

Regarding `[2H]C([2H])([2H])C(OC(=O)N[C@@H]1C(=O)N2C[C@H](Oc3nc(-c4ccc(OC(C)C)cn4)cc4cc(OC)ccc34)C[C@H]2C(=O)N[C@]2(C(=O)NS(=O)(=O)C3CC3)C[C@H]2/C=C\CC[C@@H](C)C[C@H]1C)(C([2H])([2H])[2H])C(F)(F)F` [Compound 5205, 1,1,1,3,3,3-hexadeutero-2-(trifluoromethyl)propan-2-yl((2R,6S,7R,9R,13aS,14aR,16aS,Z)-14a-((cyclopropylsulfonyl)carbamoyl)-2-((3-(5-isopropoxypyridin-2-yl)-6-methoxyisoquinolin-1-yl)oxy)-7,9-dimethyl-5,16-dioxo-1,2,3,5,6,7,8,9,10,11,13a,14,14a,15,16,16a-hexadecahydrocyclopropa[e]pyrrolo[1,2-a][1,4]diazacyclopentadecin-6-yl)carbamate], the EC50 in assay [1] and in assay [2] was under 5.46 nM in each case.

`COc1ccc2c(O[C@@H]3C[C@H]4C(=O)N[C@]5(C(=O)NS(=O)(=O)C6CC6)C[C@H]5/C=C\CC[C@H](C)C[C@@H](C)[C@H](NC(=O)O[C@H](C)C(F)(F)F)C(=O)N4C3)nc(-c3ccc(OC(C)C)cn3)cc2c1` [Compound 5206, (R)-1,1,1-trifluoropropan-2-yl ((2R,6S,7R,9S,13aS,14aR,16aS,Z)-14a-((cyclopropylsulfonyl)carbamoyl)-2-((3-(5-isopropoxypyridin-2-yl)-6-methoxyisoquinolin-1-yl)oxy)-7,9-dimethyl-5,16-dioxo-1,2,3,5,6,7,8,9,10,11,13a,14,14a,15,16,16a-hexadecahydrocyclopropa[e]pyrrolo[1,2-a][1,4]diazacyclopentadecin-6-yl)carbamate]: the EC50 in assay [1] and in assay [2] was under 5.46 nM each time.

As for `COc1ccc2c(O[C@@H]3C[C@H]4C(=O)N[C@]5(C(=O)NS(=O)(=O)C6CC6)C[C@H]5/C=C\CC[C@@H](C)C[C@@H](C)[C@H](NC(=O)O[C@H](C)C(F)(F)F)C(=O)N4C3)nc(-c3ccc(OC(C)C)cn3)cc2c1` [Compound 5207, (R)-1,1,1-trifluoropropan-2-yl ((2R,6S,7R,9R,13aS,14aR,16aS,Z)-14a-((cyclopropylsulfonyl)carbamoyl)-2-((3-(5-isopropoxypyridin-2-yl)-6-methoxyisoquinolin-1-yl)oxy)-7,9-dimethyl-5,16-dioxo-1,2,3,5,6,7,8,9,10,11,13a,14,14a,15,16,16a-hexadecahydrocyclopropa[e]pyrrolo[1,2-a][1,4]diazacyclopentadecin-6-yl)carbamate], the EC50 in assay [1] and in assay [2] was under 5.46 nM each time.

`COc1ccc2c(O[C@@H]3C[C@H]4C(=O)N[C@]5(C(=O)NS(=O)(=O)C6CC6)C[C@H]5/C=C\CC[C@H](C)C[C@@H](C)[C@H](NC(=O)OC5C[C@@H]6C[C@@H]6C5)C(=O)N4C3)nc(-c3ccc(OC(C)C)cn3)cc2c1` (stereo partly drawn) [Compound 5208, (1R,3r,5S)-bicyclo[3.1.0]hexan-3-yl((2R,6S,7R,9S,13aS,14aR,16aS,Z)-14a-((cyclopropylsulfonyl)carbamoyl)-2-((3-(5-isopropoxypyridin-2-yl)-6-methoxyisoquinolin-1-yl)oxy)-7,9-dimethyl-5,16-dioxo-1,2,3,5,6,7,8,9,10,11,13a,14,14a,15,16,16a-hexadecahydrocyclopropa[e]pyrrolo[1,2-a][1,4]diazacyclopentadecin-6-yl)carbamate]: the EC50 in assay [1] and in assay [2] was under 5.46 nM in each case.

Regarding `COc1ccc2c(O[C@@H]3C[C@H]4C(=O)N[C@]5(C(=O)NS(=O)(=O)C6CC6)C[C@H]5/C=C\CC[C@@H](C)C[C@@H](C)[C@H](NC(=O)OC5C[C@@H]6C[C@@H]6C5)C(=O)N4C3)nc(-c3ccc(OC(C)C)cn3)cc2c1` (stereo partly drawn) [Compound 5209, (1R,3r,5S)-bicyclo[3.1.0]hexan-3-yl((2R,6S,7R,9R,13aS,14aR,16aS,Z)-14a-((cyclopropylsulfonyl)carbamoyl)-2-((3-(5-isopropoxypyridin-2-yl)-6-methoxyisoquinolin-1-yl)oxy)-7,9-dimethyl-5,16-dioxo-1,2,3,5,6,7,8,9,10,11,13a,14,14a,15,16,16a-hexadecahydrocyclopropa[e]pyrrolo[1,2-a][1,4]diazacyclopentadecin-6-yl)carbamate], the EC50 in assay [1] and in assay [2] was under 5.46 nM throughout.

Consider `COc1ccc2c(O[C@@H]3C[C@H]4C(=O)N[C@]5(C(=O)NS(=O)(=O)C6CC6)C[C@H]5/C=C\CC[C@H](C)C[C@@H](C)[C@H](NC(=O)NC(C)(C)C)C(=O)N4C3)nc(-c3ccc(OC(C)C)cn3)cc2c1` [Compound 5210, (2R,6S,7R,9S,13aS,14aR,16aS,Z)-6-(3-(tert-butyl)ureido)-N-(cyclopropylsulfonyl)-2-((3-(5-isopropoxypyridin-2-yl)-6-methoxyisoquinolin-1-yl)oxy)-7,9-dimethyl-5,16-dioxo-1,2,3,5,6,7,8,9,10,11,13a,14,14a,15,16,16a-hexadecahydrocyclopropa[e]pyrrolo[1,2-a][1,4]diazacyclopentadecine-14a-carboxamide], for which the EC50 in assay [1] and in assay [2] was under 5.46 nM throughout.

For `COc1ccc2c(O[C@@H]3C[C@H]4C(=O)N[C@]5(C(=O)NS(=O)(=O)C6CC6)C[C@H]5/C=C\CC[C@@H](C)C[C@@H](C)[C@H](NC(=O)NC(C)(C)C)C(=O)N4C3)nc(-c3ccc(OC(C)C)cn3)cc2c1` [Compound 5211, (2R,6S,7R,9R,13aS,14aR,16aS,Z)-6-(3-(tert-butyl)ureido)-N-(cyclopropylsulfonyl)-2-((3-(5-isopropoxypyridin-2-yl)-6-methoxyisoquinolin-1-yl)oxy)-7,9-dimethyl-5,16-dioxo-1,2,3,5,6,7,8,9,10,11,13a,14,14a,15,16,16a-hexadecahydrocyclopropa[e]pyrrolo[1,2-a][1,4]diazacyclopentadecine-14a-carboxamide], the concentration giving a half-maximal response (EC50) in assay [1] and in assay [2] was under 5.46 nM throughout.

Consider `COc1ccc2c(O[C@@H]3C[C@H]4C(=O)N[C@]5(C(=O)NS(=O)(=O)C6CC6)C[C@H]5/C=C\CC[C@H](C)C[C@@H](C)[C@H](NC(=O)OC(C)(C)C)C(=O)N4C3)nc(-c3ccc(OC(C)C)nc3)cc2c1` [Compound 5212, tert-butyl ((2R,6S,7R,9S,13aS,14aR,16aS,Z)-14a-((cyclopropylsulfonyl)carbamoyl)-2-((3-(6-isopropoxypyridin-3-yl)-6-methoxyisoquinolin-1-yl)oxy)-7,9-dimethyl-5,16-dioxo-1,2,3,5,6,7,8,9,10,11,13a,14,14a,15,16,16a-hexadecahydrocyclopropa[e]pyrrolo[1,2-a][1,4]diazacyclopentadecin-6-yl)carbamate], for which the 50% effective concentration (EC50) in assay [1] and in assay [2] was under 5.46 nM each time.

With `COc1ccc2c(O[C@@H]3C[C@H]4C(=O)N[C@]5(C(=O)NS(=O)(=O)C6CC6)C[C@H]5/C=C\CC[C@@H](C)C[C@@H](C)[C@H](NC(=O)OC(C)(C)C)C(=O)N4C3)nc(-c3ccc(OC(C)C)nc3)cc2c1` [Compound 5213, tert-butyl ((2R,6S,7R,9R,13aS,14aR,16aS,Z)-14a-((cyclopropylsulfonyl)carbamoyl)-2-((3-(6-isopropoxypyridin-3-yl)-6-methoxyisoquinolin-1-yl)oxy)-7,9-dimethyl-5,16-dioxo-1,2,3,5,6,7,8,9,10,11,13a,14,14a,15,16,16a-hexadecahydrocyclopropa[e]pyrrolo[1,2-a][1,4]diazacyclopentadecin-6-yl)carbamate], the EC50 in assay [1] and in assay [2] was under 5.46 nM in each case.

Regarding `COc1ccc2c(O[C@@H]3C[C@H]4C(=O)N[C@]5(C(=O)NS(=O)(=O)C6CC6)C[C@H]5/C=C\CC[C@H](C)C[C@@H](C)[C@H](NC(=O)OC(C)(C)C(F)(F)F)C(=O)N4C3)nc(-c3ccc(OC(C)C)nc3)cc2c1` [Compound 5214, 1,1,1-trifluoro-2-methylpropan-2-yl((2R,6S,7R,9S,13aS,14aR,16aS,Z)-14a-((cyclopropylsulfonyl)carbamoyl)-2-((3-(6-isopropoxypyridin-3-yl)-6-methoxyisoquinolin-1-yl)oxy)-7,9-dimethyl-5,16-dioxo-1,2,3,5,6,7,8,9,10,11,13a,14,14a,15,16,16a-hexadecahydrocyclopropa[e]pyrrolo[1,2-a][1,4]diazacyclopentadecin-6-yl)carbamate], the EC50 was under 5.46 nM in assay [1] and 4.82 to 103 nM in assay [2].
